Consider eight compounds from ChEMBL document CHEMBL2150900, “β-Lactam synthon-interceded diastereoselective synthesis of functionalized octahydroindole-based molecular scaffolds and their in vitro cytotoxic evaluation” (Eur J Med Chem, 2012).

The IC50 is the concentration at which inhibition is half-maximal. High values mean weaker potency in that assay, low ones greater potency in that assay.

The test can be described thus: Cytotoxicity against human WHCO1 cells after 48 hrs by MTT assay. Type of test: functional, cell-based. The settings on record: WHCO1, 48 h. On the technique in general: Tetrazolium dyes change colour on reduction, which living cells bring about.
Compound `COC(=O)[C@H]1[C@H]2[C@H]([C@H](I)CC[C@@H]2C(=O)OC)N(c2ccccc2)[C@H]1c1ccccc1` (racemic) had an IC50 of 88.1 µM.
Then `COC(=O)[C@H]1[C@H]2[C@H]([C@H](I)CC[C@@H]2C(=O)OC)N(c2ccc(C)cc2)[C@H]1c1ccc(OC)cc1` (racemic), with 37.8 µM; and `COC(=O)[C@H]1[C@H]2[C@H]([C@H](I)CC[C@@H]2C(=O)OC)N(c2ccc(C)cc2)[C@H]1c1ccccc1` (racemic), with 40.3 µM; and `COC(=O)[C@H]1[C@H]2[C@H]([C@H](I)CC[C@@H]2C(=O)OC)N(c2ccccc2)[C@H]1c1ccc(OC)cc1` (racemic), with 37.1 µM.
Then `COC(=O)[C@H]1[C@H]2[C@H]([C@H](I)CC[C@@H]2C(=O)OC)N(c2ccccc2)[C@H]1c1ccc(Cl)cc1` (racemic), with 36.8 µM.
As for `Cc1ccc([C@@H]2[C@@H]3C(=O)NC(=O)[C@@H]4CC[C@@H](I)[C@@H]([C@H]34)N2c2ccc(C)cc2)cc1` (racemic), the IC50 was 14.1 µM.
Then `Cc1ccc(N2[C@@H]3[C@@H]4[C@@H](C(=O)NC(=O)[C@@H]4CC[C@H]3I)[C@H]2c2ccc(Cl)cc2)cc1` (racemic), with 13 µM.
The figure for `O=C1NC(=O)[C@@H]2CC[C@@H](I)[C@H]3[C@@H]2[C@@H]1[C@@H](c1ccc(Cl)cc1)N3c1ccccc1` (racemic) is 17.6 µM.
